For nine molecules, Kd and IC50 results are on record in patent US20250332300A1 (priority 2024, published 2025).

Type in all cases: binding
The target of one assay is human HER2 (23-652) (Homo sapiens, UniProt P04626). Kind of assay: Surface plasmon resonance (SPR) for assessment of peptide affinity, human HER2. Also noted: towards human HER2 (23-652) and mouse HER2 (23-653); made in house. In short, it runs like this: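 Binding kinetics fitted from sensorgrams with 280 s peptide association then 3000 s dissociation (30 uL/min), using HER2 (23-652) either directly immobilized (SA/CM5) or anti-Fc-captured; 3 M magnesium chloride used for regeneration.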
A general note: Surface plasmon resonance follows binding to a sensor surface in real time, without labels.

In assay [1] the target is T1, mouse HER2 (23-653) (Mus musculus, UniProt P70424). Kind of assay: Surface plasmon resonance (SPR) for assessment of peptide affinity, mouse HER2. Also noted: mouse HER2 (23-653) using a Cy5 labeled peptide as a probe; made in house. From the text:
Each protein was immobilized either onto a SA sensorchip (Cytiva, BR-1005-31) or CM5 sensorchip (Cytiva, BR-1005-30) to a density of 800-2000 RU.

Assay [2] deals with T1, mouse HER2 (23-653). As to the kind of experiment: TR-FRET competition assay for peptide potency, mouse HER2. Further details: mouse HER2 (23-653) using a Cy5 labeled peptide as a probe; made in house; host or cells: mammalian cells. As to conditions: 0.1 nM mouse HER2, 24 h incubation. For orientation: Time-resolved FRET reads energy transfer from a long-lived donor to a nearby acceptor.

The mark [3] stands for this setting: SPR, human HER2 extracellular domain, 25° C., 1:1 binding model, read-out: huHER2-SPR-ONC KD.
The mark [4] stands for this setting: SPR, mouse HER2 extracellular domain, 25° C., 1:1 binding model, read-out: moHER2-SPR-ONC KD.
Setting [5] is: TR-FRET competition with Cy5 labeled peptide probe, read-out: moHER2 TR-FRET IC50.

pIC50, pKd: −log10 of the molar value. Structures can show the parent of a compound that is named as a salt. Where two headings read alike, the source gives them in different places. Positions of bridges follow the written chain, without caps; N, C: chain ends. Non-standard residues stand in square brackets, D forms with d. Residues, ends and D or L forms follow the SMILES beside them. Trp(5-OH) = N[C@@H](Cc1c[nH]c2ccc(O)cc12)C(=O)O; NMePhe(4-F) = CN[C@@H](Cc1ccc(F)cc1)C(=O)O; NMehPhe = CN[C@@H](CCc1ccccc1)C(=O)O; NMeAoc(2) = CCCCCC[C@H](NC)C(=O)O; NMeAhp(2) = CCCCC[C@H](NC)C(=O)O; Aad = N[C@@H](CCCC(=O)O)C(=O)O; Gly(cPr) = N[C@H](C(=O)O)C1CC1; NMeK = CN[C@@H](CCCCN)C(=O)O; NMeDap = CN[C@@H](CN)C(=O)O; NMeS = CN[C@@H](CO)C(=O)O

In general, pKd refers to the negative decadic logarithm of the Kd, by convention in mol/L. Broadly, the pIC50 is −log10 of the IC50, conventionally taken in molar units. On to `CC(=O)N[C@H]1CCCC(=O)NC[C@@H](C(=O)N(C)[C@@H](Cc2ccc(F)cc2)C(N)=O)N(C)C(=O)[C@H](C2CC2)NC(=O)[C@H](Cc2c[nH]c3ccccc23)NC(=O)[C@H](Cc2c[nH]c3ccc(O)cc23)NC(=O)[C@H](CO)N(C)C(=O)[C@H](CCc2ccccc2)N(C)C(=O)[C@H](CO)NC(=O)[C@H](Cc2ccc(O)cc2)NC1=O` [Example A29, (3S,6S,9S,12S,15S,18S,21S,24S,27S)-9-((1H-indol-3-yl)methyl)-27-acetamido-N-((S)-1-amino-3-(4-fluorophenyl)-1-oxopropan-2-yl)-6-cyclopropyl-12-((5-hydroxy-1H-indol-3-yl)methyl)-24-(4-hydroxybenzyl)-15,21-bis(hydroxymethyl)-N,4,16,19-tetramethyl-5,8,11,14,17,20,23,26,31-nonaoxo-18-phenethyl-1,4,7,10,13,16,19,22,25-nonaazacyclohentriacontane-3-carboxamide] (Ac-[Aad]YS[NMehPhe][NMeS][Trp(5-OH)]W[Gly(cPr)][NMeDap][NMePhe(4-F)]-NH2; lactam 1-9), for which the values for the pKd at human HER2 (23-652) (setting [3]) and at mouse HER2 (23-653) [1] (setting [4]) were 7.52 and 7.57, respectively. Besides, the negative-log IC50 (pIC50) on mouse HER2 (23-653) [2] (setting [5]) was 7.28.
As to `CC(=O)N[C@H]1CCC(=O)NC[C@@H](C(=O)N(C)[C@@H](Cc2ccc(F)cc2)C(=O)N2CCC[C@H]2C(N)=O)N(C)C(=O)[C@H](C2CC2)NC(=O)[C@H](Cc2c[nH]c3ccccc23)NC(=O)[C@H](Cc2c[nH]c3ccc(O)cc23)NC(=O)[C@H](CO)N(C)C(=O)[C@H](CCc2ccccc2)N(C)C(=O)[C@H](CO)NC(=O)[C@H](Cc2ccc(O)cc2)NC1=O` [Example A30, (3S,6S,9S,12S,15S,18S,21S,24S,27S)-9-((1H-indol-3-yl)methyl)-27-acetamido-N-((S)-1-((S)-2-carbamoylpyrrolidin-1-yl)-3-(4-fluorophenyl)-1-oxopropan-2-yl)-6-cyclopropyl-12-((5-hydroxy-1H-indol-3-yl)methyl)-24-(4-hydroxybenzyl)-15,21-bis(hydroxymethyl)-N,4,16,19-tetramethyl-5,8,11,14,17,20,23,26,30-nonaoxo-18-phenethyl-1,4,7,10,13,16,19,22,25-nonaazacyclotriacontane-3-carboxamide], the values for the pKd at human HER2 (23-652) (setting [3]) and on mouse HER2 (23-653) [1] (setting [4]) were 7.51 and 7.52, respectively. Besides, the pIC50 on mouse HER2 (23-653) [2] (setting [5]) was 7.17.
For `CN1C(=O)[C@H](CO)NC(=O)[C@H](Cc2ccc(O)cc2)NC(=O)[C@@H](N)CCC(=O)NC[C@@H](C(=O)N(C)[C@@H](Cc2ccc(F)cc2)C(N)=O)N(C)C(=O)[C@H](C2CC2)NC(=O)[C@H](Cc2c[nH]c3ccccc23)NC(=O)[C@H](Cc2c[nH]c3ccc(O)cc23)NC(=O)[C@H](CCCCNC(=O)C(F)(F)F)N(C)C(=O)[C@@H]1CCc1ccccc1` [Example A33, (3S,6S,9S,12S,15S,18S,21S,24S,27S)-9-((1H-indol-3-yl)methyl)-27-amino-N-((S)-1-amino-3-(4-fluorophenyl)-1-oxopropan-2-yl)-6-cyclopropyl-12-((5-hydroxy-1H-indol-3-yl)methyl)-24-(4-hydroxybenzyl)-21-(hydroxymethyl)-N,4,16,19-tetramethyl-5,8,11,14,17,20,23,26,30-nonaoxo-18-phenethyl-15-(4-(2,2,2-trifluoroacetamido)butyl)-1,4,7,10,13,16,19,22,25-nonaazacyclotriacontane-3-carboxamide TFA salt], the negative-log Kd (pKd) on human HER2 (23-652) was 7.82; at mouse HER2 (23-653) [1], 7.64. At mouse HER2 (23-653) [2] (moHER2 TR-FRET IC50, TR-FRET competition with Cy5 labeled peptide probe), this molecule showed a negative logarithm of the IC50 (pIC50) of 7.49.
Take `CC(=O)N[C@H]1CCCC(=O)NC[C@@H](C(=O)N(C)[C@@H](Cc2ccc(F)cc2)C(=O)N2CCC[C@H]2C(N)=O)N(C)C(=O)[C@H](C2CC2)NC(=O)[C@H](Cc2c[nH]c3ccccc23)NC(=O)[C@H](Cc2c[nH]c3ccc(O)cc23)NC(=O)[C@H](CO)N(C)C(=O)[C@H](CCc2ccccc2)N(C)C(=O)[C@H](CO)NC(=O)[C@H](Cc2ccc(O)cc2)NC1=O` [Example A26, (3S,6S,9S,12S,15S,18S,21S,24S,27S)-9-((1H-indol-3-yl)methyl)-27-acetamido-N-((S)-1-((S)-2-carbamoylpyrrolidin-1-yl)-3-(4-fluorophenyl)-1-oxopropan-2-yl)-6-cyclopropyl-12-((5-hydroxy-1H-indol-3-yl)methyl)-24-(4-hydroxybenzyl)-15,21-bis(hydroxymethyl)-N,4,16,19-tetramethyl-5,8,11,14,17,20,23,26,31-nonaoxo-18-phenethyl-1,4,7,10,13,16,19,22,25-nonaazacyclohentriacontane-3-carboxamide]: the pKd on human HER2 (23-652) (setting [3]) is 7.96; at mouse HER2 (23-653) [1] (setting [4]), 8.08. Also, at mouse HER2 (23-653) [2] (setting [5]), the pIC50 is 7.89.
`CC(=O)NCCCC[C@H]1C(=O)N[C@@H](Cc2c[nH]c3ccc(O)cc23)C(=O)N[C@@H](Cc2c[nH]c3ccccc23)C(=O)N[C@@H]([C@H](C)O)C(=O)N(C)[C@H](C(=O)N(C)[C@@H](Cc2ccc(F)cc2)C(=O)N[C@@H](CCCCNC(=O)N2CCN(CC(=O)O)CC2)C(N)=O)CNC(=O)CC[C@H](NC(=O)CN2CCN(CC(=O)O)CCN(CC(=O)O)CCN(CC(=O)O)CC2)C(=O)N[C@@H](Cc2ccc(O)cc2)C(=O)N[C@@H](CO)C(=O)N(C)[C@@H](CCc2ccccc2)C(=O)N1C` [Example C27]: the pKd at mouse HER2 (23-653) [1] (setting [4]) is 7.27. Also, the pIC50 at mouse HER2 (23-653) [2] (setting [5]) was 7.24.
As for `CC(=O)N[C@H]1CCCC(=O)NC[C@@H](C(=O)N(C)[C@@H](Cc2ccc(F)cc2)C(=O)N[C@@H](CCCCNC(=O)CN2CCN(CC(=O)O)CCN(CC(=O)O)CCN(CC(=O)O)CC2)C(N)=O)N(C)C(=O)[C@H](C2CC2)NC(=O)[C@H](Cc2c[nH]c3ccccc23)NC(=O)[C@H](Cc2c[nH]c3ccc(O)cc23)NC(=O)[C@H](CCCCNC(=O)CC(=O)O)N(C)C(=O)[C@H](CCc2ccccc2)N(C)C(=O)[C@H](CO)NC(=O)[C@H](Cc2ccc(O)cc2)NC1=O` [Example C19], the pKd at human HER2 (23-652) (setting [3]) is 8.26; at mouse HER2 (23-653) [1] (setting [4]), 8.00. For the same molecule, the pIC50 on mouse HER2 (23-653) [2] (setting [5]) is 8.12.
For the molecule `CCCCC[C@H]1C(=O)N(C)[C@@H](CCCCNC(C)=O)C(=O)N[C@@H](Cc2c[nH]c3ccc(O)cc23)C(=O)N[C@@H](Cc2c[nH]c3ccccc23)C(=O)N[C@@H](C2CC2)C(=O)N(C)[C@H](C(=O)N(C)[C@@H](Cc2ccc(F)cc2)C(N)=O)CNC(=O)CCC[C@H](NC(C)=O)C(=O)N[C@@H](Cc2ccc(O)cc2)C(=O)N[C@@H](CO)C(=O)N1C` [Example A14, (3S,6S,9S,12S,15S,18S,21S,24S,27S)-9-((1H-indol-3-yl)methyl)-27-acetamido-15-(4-acetamidobutyl)-N-((S)-1-amino-3-(4-fluorophenyl)-1-oxopropan-2-yl)-6-cyclopropyl-12-((5-hydroxy-1H-indol-3-yl)methyl)-24-(4-hydroxybenzyl)-21-(hydroxymethyl)-N,4,16,19-tetramethyl-5,8,11,14,17,20,23,26,31-nonaoxo-18-pentyl-1,4,7,10,13,16,19,22,25-nonaazacyclohentriacontane-3-carboxamide] (Ac-[Aad]YS[NMeAhp(2)][NMeK](Ac)[Trp(5-OH)]W[Gly(cPr)][NMeDap][NMePhe(4-F)]-NH2; lactam 1-9), the pKd is 8.89 on human HER2 (23-652) (setting [3]) and 8.92 at mouse HER2 (23-653) [1] (setting [4]). In addition, on mouse HER2 (23-653) [2] (setting [5]), the pIC50 is 8.43.
Turning to `CC(=O)N[C@H]1CCCC(=O)NC[C@@H](C(=O)N(C)[C@@H](Cc2ccc(F)cc2)C(=O)N[C@@H](CCCCNC(=O)CN2CCN(CC(=O)O)CCN(CC(=O)O)CCN(CC(=O)O)CC2)C(N)=O)N(C)C(=O)[C@H]([C@H](C)O)NC(=O)[C@H](Cc2c[nH]c3ccccc23)NC(=O)[C@H](Cc2c[nH]c3ccc(O)cc23)NC(=O)[C@H](CCCCNC(=O)CO)N(C)C(=O)[C@H](CCc2ccccc2)N(C)C(=O)[C@H](CO)NC(=O)[C@H](Cc2ccc(O)cc2)NC1=O` [Example C21], the figures for the pKd on human HER2 (23-652) (setting [3]) and on mouse HER2 (23-653) [1] (setting [4]) were 9.52 and 9.15, respectively.
Regarding `CCCCCC[C@H]1C(=O)N(C)[C@@H](CCCCNC(C)=O)C(=O)N[C@@H](Cc2c[nH]c3ccc(O)cc23)C(=O)N[C@@H](Cc2c[nH]c3ccccc23)C(=O)N[C@@H](C2CC2)C(=O)N(C)[C@H](C(=O)N(C)[C@@H](Cc2ccc(F)cc2)C(N)=O)CNC(=O)CCC[C@H](NC(C)=O)C(=O)N[C@@H](Cc2ccc(O)cc2)C(=O)N[C@@H](CO)C(=O)N1C` [Example A20, (3S,6S,9S,12S,15S,18S,21S,24S,27S)-9-((1H-indol-3-yl)methyl)-27-acetamido-15-(4-acetamidobutyl)-N-((S)-1-amino-3-(4-fluorophenyl)-1-oxopropan-2-yl)-6-cyclopropyl-18-hexyl-12-((5-hydroxy-1H-indol-3-yl)methyl)-24-(4-hydroxybenzyl)-21-(hydroxymethyl)-N,4,16,19-tetramethyl-5,8,11,14,17,20,23,26,31-nonaoxo-1,4,7,10,13,16,19,22,25-nonaazacyclohentriacontane-3-carboxamide] (Ac-[Aad]YS[NMeAoc(2)][NMeK](Ac)[Trp(5-OH)]W[Gly(cPr)][NMeDap][NMePhe(4-F)]-NH2; lactam 1-9), on mouse HER2 (23-653) [1] (setting [4]), the negative-log Kd (pKd) is 8.60. In addition, on mouse HER2 (23-653) [2] (setting [5]), the pIC50 was 8.33.
